# Patent publication US7390831B2, “Tetracyclic steroid derivatives useful as progesterone receptor modulators” (Janssen Pharmaceutica N.V., priority 2006, dated 2008)
# System: A549 Human lung carcinoma cells
# Experiment: A549 Human Lung Cell Assay (transfected cells, dexamethasone challenge, luciferase read-out)
# Assay type: cell-based
# Conditions: A549 cells, test compound 10 min then dexamethasone challenge, 24 h, Luc-assay; read-out: A 549 IC50
# Procedure: A549Human Lung Cell Assay
# A549Human lung carcinoma cells were grown in F-12K Nutrient Mixture containing 10% (v/v) fetal bovine serum (FBS; Invitrogen), 2 mM glutamine and 0.15% sodium dicarbonate (Invitrogen).
# A549 cells were split 1 to 3 in 175 cm tissue culture flask. The cells were incubated at 37° C. in CO2 incubator until the cells were 95% confluent (typically 24-30 hours).
# The following solutions were prepared in sterile tubes: (a) Solution A 1.5 μg/ml of DNA in 8.5 ml OPTI-MEM I Reduced Serum Medium. (GIBCO cat# 31985) and (b) Solution B: 6 μl/ml of DMRIE-C Reagent into […] OPTI-MEM I. The two solutions were combined and mixed gently, then incubated at room temperature for 40 minutes.
# The A549 cells prepared above were washed with […] of OPTI-MEM I. The medium was removed and 17 ml of the lipid-DNA complex solution was overlayed onto cells. The cells ere then incubated for 16 h at 37° C. in CO2 incubator. The DNA-containing medium was removed and 30 ml of growth medium was added. (5% Charcoal treated FBS) After 5-6 h, the cells were seeded in a 96 well plate and the cells incubated overnight at 37° C. in CO2 incubator.
# To each well was then added 5 μl of test compounds and the cells incubated at 37° C. for 10 min. 5 μL of dexamathasone (CAS [50-02-2]), was then added to each well for challenger and the cells incubated at 37° C. in CO2 incubator for 24 h. 100 μl of Luc-assay buffer was then added into each cell well and the cells incubated for 30 min at room temperature. A 150 μL sample from each well was then transferred into a DYNEX Microlitel plate and read on Top-counter.
# (§1) Representative compounds of the present invention were tested according to the procedures described in Examples 45 and 46 above, with results as listed in Table 2 below.
row,Compound,IC50
1,"1-Hydroxy-1-isopropenyl-10-(4-methanesulfonyl-phenyl)-12a-methyl-2,3,3a,3b,4,5,9,10,10,12,12a-decahydro-1H,8H-11-oxa-naphtho[2,1-e]azulen-7-one [Compound 30]",> 1000 nM
2,"10-(4-Dimethylamino-phenyl)-1-ethynyl-1-hydroxy-12a-methyl-2,3,3a,3b,4,5,9,10,12,12a-decahydro-1H,8H-11-oxa-naphtho[2,1-e]azulen-7-one [Compound 3]",133 nM
3,CC#C[C@]1(O)CCC2C3CCC4=CC(=O)CCC4=C3[C@@H](c3ccc(OC)cc3)OC[C@@]21C (stereo partly drawn) [Compound 27],41.5 nM

# Same assay, conditions: Homo sapiens, A549, A549 cells, test compound 10 min then dexamethasone challenge, 24 h, Luc-assay; read-out: A 549 IC50
row,Compound,IC50
1,"CSc1ccc([C@H]2OC[C@]3(C)C(=O)CCC3C3CCC4=CC(=O)CCC4=C32)cc1 (stereo partly drawn) [Compound 25, 12a-Methyl-10-(4-methylsulfanyl-phenyl) 2,3,3a,3b,4,5,9,10,12,12a-decahydro-8H-11-oxa-naphtho[2,1-e]azulene-1,7-dione]",1320 nM
2,C=CC(=O)[C@]1(O)CCC2C3CCC4=CC(=O)CCC4=C3[C@@H](c3ccc(SC)cc3)OC[C@@]21C (stereo partly drawn) [Compound 26],2310 nM
3,"COc1ccc([C@H]2OC[C@]3(C)C(=O)CCC3C3CCC4=CC(=O)CCC4=C32)cc1 (stereo partly drawn) [Compound 28, 10-(4-Methoxy-phenyl)-12a-methyl-2,3,3a,3b,4,5,9,10,12,12a-decahydro-8H-11-oxa-naphtho[2,1-e]azulene-1,7-dione]",> 3000 nM
4,"COc1ccc([C@@H]2OC[C@]3(C)C(=O)CCC3C3CCC4=CC(=O)CCC4=C32)cc1 (stereo partly drawn) [Compound 29, 10-α-(4-Methoxy-phenyl)-12a-methyl-2,3,3a,3b,4,5,9,10,12,12a-decahydro-8H-11-oxa-naphtho[2,1-e]azulene-1,7-dione]",> 3000 nM

# System: T47D human breast cancer cells
# Experiment: T47D Human Breast Cancer Cells Assay (alkaline phosphatase, luminescence)
# Assay type: cell-based
# Conditions: Homo sapiens, T47D, 24 h, read-out: T47D IC50 (nM), T47D cells, 24 h with test compound, alkaline phosphatase assay (SEAP kit)
# Procedure: T47D Human Breast Cancer Cells Assay
# T47D human breast cancer cells were grown in RPMI medium without phenol red (Invitrogen) containing 10% (v/v) heat-inactivated fetal bovine serum (FBS; Hyclone), 1% (v/v) penicillin-streptomycin (Invitrogen), 1% (w/v) glutamine (Invitrogen), and […] insulin (Sigma). Incubation conditions were 37° C. in a humidified 5% (v/v) carbon dioxide environment.
# The cells were plated in 96-well tissue culture plates at 10,000 cells per well in assay medium [RPMI medium without phenol red (Invitrogen) containing 5% (v/v) charcoal-treated FBS (Hyclone) and 1% (v/v) penicillin-streptomycin (Invitrogen)]. Two days later, the medium was decanted and test compound or control were added at a final concentration of 0.1% (v/v) dimethyl sulfoxide in fresh assay medium. Twenty-four hours later, an alkaline phosphatase assay was performed using a SEAP kit (BD Biosciences Clontech, Palo Alto, Calif.). Briefly, the medium was decanted and the cells were fixed for 30 minutes at room temperature with 5% (v/v) formalin (Sigma). The cells were washed once with room temperature Hank's buffered saline solution (Invitrogen). Equal volumes (0.05 mL) of 1× Dilution Buffer, Assay Buffer and 1:20 substrate/enhancer mixture were then added. After 1 hour incubation at room temperature in the dark, the lysate was transferred to a white 96-well plate (Dynex) and luminescence was read using a LuminoSkan Ascent (Thermo Electron, Woburn, Mass.).
# as §1
row,Compound,IC50
1,"CN(C)c1ccc([C@H]2OC[C@@]3(C)C(CC[C@@]3(O)C#Cc3ccccc3)C3CCC4=CC(=O)CCC4=C32)cc1 (stereo partly drawn) [Compound 31, 10-(4-Dimethylamino-phenyl)-1-hydroxy-12a-methyl-1-phenyl ethynyl-2,3,3a,3b,4,5,9,10,12,12a-decahydro-1H,8H-11-oxa-naphtho[2,1-e]azulen-7-one]",78 nM
2,"CN(C)c1ccc([C@H]2OC[C@@]3(C)C(CC[C@@]3(O)C#Cc3ccccc3F)C3CCC4=CC(=O)CCC4=C32)cc1 (stereo partly drawn) [Compound 32, 10-(4-Dimethylamino-phenyl)-1-(2-fluoro-phenylethynyl)-1-hydroxy-12a-methyl-2,3,3a,3b,4,5,9,10,12,12a-decahydro-1H,8H-11-oxa-naphtho[2,1-e]azulen-7-one]",48 nM
3,"CN(C)c1ccc([C@H]2OC[C@@]3(C)C(CC[C@@]3(O)C#Cc3cc(F)cc(F)c3)C3CCC4=CC(=O)CCC4=C32)cc1 (stereo partly drawn) [Compound 36, 1-(3,5-Difluoro-phenylethynyl)-10-(4-dimethylamino-phenyl)-1-hydroxy-12a-methyl-2,3,3a,3b,4,5,9,10,12,12a-decahydro-1H,8H-11-oxa-naphtho[2,1-e]azulen-7-one]",160 nM
4,C=C1CCOC12CC[C@H]1[C@@H]3CCC4=CC(=O)CCC4=C3[C@@H](c3ccc(N(C)C)cc3)OC[C@@]12C (stereo partly drawn) [Compound 38],1.1 nM

# Same assay, conditions: T47D cells, 24 h with test compound, alkaline phosphatase assay (SEAP kit); read-out: T47D IC50
row,Compound,IC50
1,"10-(4-Dimethylamino-phenyl)-1-(3-fluoro-phenylethynyl)-1-hydroxy-12a-methyl-2,3,3a,3b,4,5,9,10,12,12 a-decahydro-1H,8H-11-oxa-naphtho[2,1-e]azulen-7-one [Compound 34]",122 nM
2,"10-(4-Dimethylamino-phenyl)-1-(4-fluoro-phenylethynyl)-1-hydroxy-12a-methyl-2,3,3a,3b,4,5,9,10,12,12a-decahydro-1H,8H-11-oxa-naphtho[2,1-e]azulen-7-one [Compound 35]",17 nM
3,"10-(4-Dimethylamino-phenyl)-1-ethynyl-1-hydroxy-12a-methyl-2,3,3a,3b,4,5,9,10,12,12a-decahydro-1H,8H-11-oxa-naphtho[2,1-e]azulen-7-one [Compound 3]",7 nM
4,"CN(C)c1ccc(C2OCC3(C)C(CCC3(O)C(F)(F)C(F)(F)F)C3CCC4=CC(=O)CCC4=C23)cc1 (stereo not drawn) [Compound 37, 10-(4-Dimethylamino-phenyl)-1-hydroxy-12a-methyl-1-penta fluoroethyl 2,3,3a,3b4,5,9,10,12,12a-decahydro-1H,8H-11-oxa-naphtho[2,1-e]azulen-7-one]",42 nM
